Assays:
[1] = system: HeLa-derived TZM-b1 cells; experiment: Viability of HIV-1 infected TZM-b1 cells; assay type: cell-based, human; conditions: HIV-1 infected TZM-b1 cells treated daily for 4 days
Description: To test the hypothesis that AAK1 and GAK are important for HIV infection, HeLa-derived TZM-b1 cells were used, which express CD4, CCR5 and CXCR4, as well as β-galactosidase and firefly luciferase reporter genes responsive to HIV transcription (Wei et al., Antimicrobial agents and chemotherapy 46:1896-1905, 2002). Cells were transfected with siRNAs targeting AAK1, GAK or a NT sequence followed by infection with the infectious HIV-1 NL4-3 clone (Adachi et al., J Virol 59:284-291, 1986), as described (Zhou et al., Cell Host & Microbe 4:495-504, 2008). Luciferase activity was measured at 96 hr postinfection.
Following 24, 48, and 72 hrs of treatment with inhibitory compounds or silencing with siRNAs, cells were incubated for 2-4 hrs at 37° C. in the presence of 10% AlamarBlue reagent (TREK Diagnostic Systems), as described (Einav et al., Nature Biotechnology 26, 1019-1027, 2008). Plates were then scanned and fluorescence was detected by using FLEXstation II 384 (Molecular Devices, Inc.).

[2] = system: HIV-1 NL4-3; experiment: HIV replication assay in TZM-b1 cells, luciferase; assay type: cell-based; conditions: for antiviral effect on HIV replication: HIV-1 infected TZM-b1 cells treated daily with serial dilutions for 4 days; for EC50: Human immunodeficiency virus 1, NL43, TZM-b1, 96 h, read-out: EC50, HIV replication
[3] = system: core-AP2M1 binding; experiment: Core-AP2M1 co-immunoprecipitation in membranes of HCV infected Huh-7.5 cells; assay type: cell-based, HCV core / human AP2M1; conditions: membranes of Huh-7.5 cells infected with J6/JFH, 100 nM calyculin-A
Description: To determine whether core binds AP2M1 in the context of authentic HCV infection, co-immunoprecipitation assays in membrane fractions prepared from Huh-7.5 cells infected with cell culture-grown HCV (J6/JFH) were performed (Lindenbach et al., Science 309:623-626, 2005). AP2M1 could bring down core when anti-AP2M1 antibodies but not IgG controls were added to the membrane lysates. […] (FIG. 2D). […] Colocalization of core with AP2M1 in Huh-7.5 cells 72 hr following electroporation with J6/JFH HCV RNA was also investigated.
Membranes were prepared from ˜20×10^6 Huh-7.5 cells infected with HCV (J6/JFH) (Lindenbach, et al., Science 309, 623-626, 2005), as previously described (Einav et al., J Virol 78, 11288-11295, 2004). Briefly, cells were collected by trypsinization, washed once with PBS and resuspended in HME buffer (20 mM HEPES [pH 7.4], 1 mM EDTA, 2 mM MgCl2), supplemented with phenylmethylsulfonyl fluoride to a final concentration of 1 mM and a protease inhibitors cocktail (Sigma). Cells were lysed by two cycles of freeze-thaw in dry ice-ethanol and then passaged through a 27.5-gauge needle 10 times. Nuclei were removed by centrifugation at 250×g for 10 min, and the postnuclear supernatant was subjected to ultracentrifugation at 100,000×g for 30 min to obtain the membrane preparation. All steps were done at 4° C. […] Immunoprecipitates were analyzed by western blotting. […]

SMILES	effect on viability [1]	antiviral effect on HIV replication [2]	binding of core to AP2M1 (co-immunoprecipitation) [3]	EC50 [2]
CO[C@@H]1[C@H](N(C)C(=O)c2ccccc2)C[C@H]2O[C@]1(C)n1c3ccccc3c3c4c(c5c6ccccc6n2c5c31)C(=O)NC4 [PKC-412]	no effect on viability	significant dose response antiviral effect	–	–
COC[C@@H]([C@H](O)[C@H](O)C(=O)NCC[C@H](C)c1nc(/C=C/C[C@@H]2O[C@]3(C[C@@H](O)[C@@H]2C)O[C@H]([C@H](C[C@H](O)[C@H](C)[C@H](O)[C@H](C)/C=C(C)/C(C)=C/C=C/C(C)=C\C#N)OC)[C@H](OP(=O)(O)O)C3(C)C)co1)N(C)C [calyculin A]	–	–	significantly augmented	–
C#Cc1cccc(Nc2ncnc3cc(OCCOC)c(OCCOC)cc23)c1 [erlotinib]	no effect on viability	significant dose response antiviral effect	–	1400 ± 300 nM
CCN(CC)CCNC(=O)c1c(C)[nH]c(/C=C2\C(=O)Nc3ccc(F)cc32)c1C [sunitinib]	no effect on viability	–	–	800 ± 400 nM
